The results in this text go back to paper PMC3823594, “Conformational Changes Underlying Pore Dilation in the Cytoplasmic Domain of Mammalian Inward Rectifier K^+ Channels” (PLoS ONE, 2013).

Test [1] deals with T1, Kir3.2 M313A (Mus musculus, UniProt P48542, I313A).
T1 sequence (P48542 19-425 I313A): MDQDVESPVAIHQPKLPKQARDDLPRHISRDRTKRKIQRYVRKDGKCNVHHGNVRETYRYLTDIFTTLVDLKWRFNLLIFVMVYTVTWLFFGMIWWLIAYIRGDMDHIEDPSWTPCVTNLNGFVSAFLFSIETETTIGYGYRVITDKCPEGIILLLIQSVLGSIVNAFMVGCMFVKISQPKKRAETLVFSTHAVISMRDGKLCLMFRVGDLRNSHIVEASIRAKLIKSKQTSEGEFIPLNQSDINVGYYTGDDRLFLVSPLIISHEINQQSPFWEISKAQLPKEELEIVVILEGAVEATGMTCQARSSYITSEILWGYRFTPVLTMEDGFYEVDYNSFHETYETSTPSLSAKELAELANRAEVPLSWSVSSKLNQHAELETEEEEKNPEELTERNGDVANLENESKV
T1 sequence (P06199 1-466 partner): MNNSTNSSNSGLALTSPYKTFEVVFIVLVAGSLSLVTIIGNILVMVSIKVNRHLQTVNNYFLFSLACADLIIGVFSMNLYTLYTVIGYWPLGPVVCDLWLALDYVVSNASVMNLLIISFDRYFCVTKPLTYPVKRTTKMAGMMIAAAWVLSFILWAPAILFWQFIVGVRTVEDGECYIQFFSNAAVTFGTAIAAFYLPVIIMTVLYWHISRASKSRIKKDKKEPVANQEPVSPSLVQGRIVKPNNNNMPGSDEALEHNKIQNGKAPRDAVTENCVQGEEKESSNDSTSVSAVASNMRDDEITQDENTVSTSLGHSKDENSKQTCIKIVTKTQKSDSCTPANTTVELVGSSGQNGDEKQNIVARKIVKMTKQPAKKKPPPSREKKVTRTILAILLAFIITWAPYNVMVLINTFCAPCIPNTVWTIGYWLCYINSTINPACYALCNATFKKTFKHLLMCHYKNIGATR
Briefly: Two-electrode voltage clamp, ACh-dependent (m2R-dependent) K+ current activation. In kind it is cell-based. The conditions noted are these: Kir3.2 M313A with porcine m2R in Xenopus oocytes; −120 mV; Hill equation fit.

Test [2] addresses T2, Kir3.2 WT (Mus musculus, UniProt P48542).
T2 sequence (P48542 1-425): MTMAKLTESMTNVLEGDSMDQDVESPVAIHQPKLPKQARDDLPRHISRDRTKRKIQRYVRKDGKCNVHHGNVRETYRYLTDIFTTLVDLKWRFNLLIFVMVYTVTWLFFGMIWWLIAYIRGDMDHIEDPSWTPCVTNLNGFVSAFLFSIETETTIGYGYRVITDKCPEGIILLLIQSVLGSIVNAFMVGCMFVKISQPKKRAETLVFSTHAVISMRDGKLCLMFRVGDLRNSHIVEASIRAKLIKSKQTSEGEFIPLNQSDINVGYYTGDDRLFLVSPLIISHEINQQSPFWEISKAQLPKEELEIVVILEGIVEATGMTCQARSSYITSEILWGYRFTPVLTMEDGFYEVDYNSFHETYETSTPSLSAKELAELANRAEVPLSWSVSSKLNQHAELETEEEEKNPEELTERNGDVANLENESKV
T2 sequence (P06199 1-466 partner): T1 sequence (P06199 1-466 partner)
Described as above. In kind it is cell-based. To be noted: Kir3.2 WT with porcine m2R in Xenopus oocytes; −120 mV; Hill equation fit.

The Hill coefficient is a measure of the steepness of the concentration-response curve. As to `CC(=O)OCC[N+](C)(C)C` [ACh, acetylcholine], the Hill coefficient is recorded as 1.05 ± 0.08 in test [1] and 0.83 ± 0.06 in test [2].
